Data from PubChem BioAssay (NCI).
Several values for one entry are separate records, joined by “and”; a condition that tells them apart may be missing. Identical values can stand only once.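 These data come from cells grown in 96-well plates and exposed to compound for 48 hours at five concentrations. At the GI50, growth is halved. The concentration for full growth arrest is given as TGI.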

Assays:
Assay in all cases: DTP human tumour cell line panel, 48 h
ACHN renal = tested on: ACHN renal
HS 578T breast = tested on: HS 578T breast
NCI-H226 lung = tested on: NCI-H226 lung
MDA-MB-231 breast = tested on: MDA-MB-231 breast
786-0 renal = tested on: 786-0 renal
SK-MEL-2 melanoma = tested on: SK-MEL-2 melanoma
UACC-257 melanoma = tested on: UACC-257 melanoma
HOP-62 NSCLC = tested on: HOP-62 NSCLC
CCRF-CEM leukemia = tested on: CCRF-CEM leukemia
T-47D breast = tested on: T-47D breast

SMILES | GI50 (ACHN renal) | TGI (ACHN renal) | GI50 (HS 578T breast) | TGI (HS 578T breast) | GI50 (NCI-H226 lung) | TGI (NCI-H226 lung) | GI50 (MDA-MB-231 breast) | TGI (MDA-MB-231 breast) | GI50 (786-0 renal) | TGI (786-0 renal) | GI50 (SK-MEL-2 melanoma) | TGI (SK-MEL-2 melanoma) | GI50 (UACC-257 melanoma) | TGI (UACC-257 melanoma) | GI50 (HOP-62 NSCLC) | TGI (HOP-62 NSCLC) | GI50 (CCRF-CEM leukemia) | TGI (CCRF-CEM leukemia) | TGI (T-47D breast) | GI50 (T-47D breast)
COc1cc(-n2cnc(-c3ccc(Cl)cc3)c2)cc(OC)c1OC | 19.8 µM | 57.3 µM | 49.2 µM | > 100 µM | > 100 µM | > 100 µM | 85.7 µM | > 100 µM | > 100 µM | > 100 µM | 18.3 µM | 40.1 µM | 18.3 µM | 34.1 µM | 24.1 µM | 71.5 µM | 21.4 µM | 44.8 µM |  | 
O=C1c2cc([N+](=O)[O-])cc3cc([N+](=O)[O-])cc(c23)C(=O)N1CCCNCCNCCCN1C(=O)c2cc([N+](=O)[O-])cc3cc([N+](=O)[O-])cc(c23)C1=O |  | > 23.2 µM |  |  |  | 2.57 µM |  | 3.45 µM |  | 3.35 µM |  | 0.323 µM |  | 2.52 µM |  | 3.07 µM |  | 6.46 µM | 6.72 µM | 
CC1=NC(C(C)C)C(=O)O1 (configuration not stated) |  | > 100 µM |  |  |  | > 100 µM |  |  |  | > 100 µM |  |  |  | > 100 µM |  | > 100 µM |  | > 100 µM |  | 
COC(=O)C(Cc1ccccc1)NC(=O)Cn1ccnc1[N+](=O)[O-] (configuration not stated) |  | > 100 µM |  |  |  | > 100 µM |  |  |  | > 100 µM |  | > 100 µM |  | > 100 µM |  | > 100 µM |  | > 100 µM |  | 
COc1ccc(NC(=O)CC(=O)N2N=C(N(CCC#N)c3cccc(C)c3)CC2c2ccccc2)cc1 (configuration not stated) |  | > 100 µM |  |  |  | > 100 µM |  |  |  | > 100 µM |  | > 100 µM |  | > 100 µM |  | > 100 µM |  | > 100 µM |  | 
CCN(CC)CCCC(Cc1ccccc1)Nc1c2ccc(Cl)cc2nc2ccc(OC)cc12 (configuration not stated) | 2.01 µM | 4.5 µM |  |  | 3.63 µM | 14.5 µM | 1.65 µM | 3.7 µM | 1.4 µM | 3.34 µM | 1.79 µM | 3.46 µM | 1.89 µM | 3.44 µM | 3.39 µM | 12.5 µM | 2 µM | 6.51 µM | 4.16 µM | 1.97 µM
COC1OC(COS(=O)(=O)c2ccc(C)cc2)C(O)C(OS(=O)(=O)c2ccc(C)cc2)C1OS(=O)(=O)c1ccc(C)cc1 (configuration not stated) |  | > 100 µM |  |  |  | > 100 µM |  |  |  | > 100 µM |  | > 100 µM |  | > 100 µM |  | > 100 µM |  | > 100 µM |  | 
Nc1ccc(-c2nc3ccccc3o2)cc1S | 12.1 µM | 24.4 µM | 16.4 µM | 63.8 µM | 11.8 µM | 30.4 µM | 6.14 µM | 23.6 µM | 14.5 µM | 27.6 µM | 42.4 µM | > 100 µM | 23.1 µM | 59.8 µM | 14.5 µM | 27.7 µM | 14 µM | 43.3 µM |  | 
COC1=C2C[C@@H](C)C[C@@H](OC)[C@@H](O)[C@H](C)/C=C(\C)[C@@H](OC(N)=O)[C@H](OC)/C=C\C=C(/C)C(=O)NC(=CC1=O)C2=O |  |  | 1.31 µM and 11.8 µM and 1.25 µM | 17.5 µM and 42 µM and 38.2 µM |  |  |  |  |  | 8.21 µM and 6.04 µM and 13.7 µM |  |  |  | 5.05 µM and 12.7 µM and 2.5 µM |  |  |  | 1.07 µM and 7.4 µM and 4.95 µM |  | 
Oc1ccc(-c2cn3cc(Cl)sc3n2)cc1 | 3.98 µM | 24.6 µM | > 100 µM | > 100 µM | 5.49 µM | 48.5 µM | > 100 µM | > 100 µM | 18.2 µM | 67.1 µM | > 100 µM | > 100 µM | 46.2 µM | > 100 µM | > 100 µM | > 100 µM | 12.1 µM | 39.8 µM |  | 
CC(=O)OC1CC2C(C)(C)C(=O)C=C[C@]2(C)C2CCC3(C)C(c4ccoc4)[C@@H](O)[C@H]4O[C@]43[C@]12C (some centres not stated) |  | 50 µM |  |  |  | 33.5 µM |  |  |  | 31.4 µM |  | 39.6 µM |  | 41.6 µM |  | 42.6 µM |  | 54 µM |  | 
COc1ccc(-c2cc(-c3cc(C)ccc3O)[nH]c(=O)n2)cc1 |  | > 100 µM |  |  |  | > 100 µM |  |  |  | > 100 µM |  |  |  | > 100 µM |  | 76.4 µM |  | > 100 µM |  | 
COC(=O)C1=C(CS(=O)c2ccc([N+](=O)[O-])cc2[N+](=O)[O-])ON(C)C1c1ccccc1 (configuration not stated) |  | > 100 µM |  |  |  | > 100 µM |  |  |  | > 100 µM |  | > 100 µM |  | > 100 µM |  | > 100 µM |  | 37.9 µM |  | 
CC1=CC(=O)c2c(C=O)c(O)c(O)c(C(C)C)c2C1=O |  | 32.6 µM |  |  |  | 54.8 µM |  |  |  | 45.5 µM |  | 57.5 µM |  |  |  | > 100 µM |  | 60.1 µM |  | 
c1ccc(CN2CCCCC(Sc3ccccc3)CC2)cc1 (configuration not stated) |  | > 100 µM |  |  |  | 85.2 µM |  |  |  | 31.6 µM |  | 90.5 µM |  | > 100 µM |  | > 100 µM |  | 43.8 µM |  | 
NC(=O)NC1=NC(Cc2ccccc2)C(=O)N1Cc1ccccc1 (configuration not stated) |  | > 100 µM |  |  |  | > 100 µM |  |  |  | > 100 µM |  |  |  | > 100 µM |  | > 100 µM |  | > 100 µM |  | 
